Assay [1] is described as follows: viability loss of HMLE_sh_eGFP cells – cell-based, luminescence, counter-screen for HMLE_sh_ECad selective toxicity project, dose response (AID 463074).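 Further: HMLE human mammary epithelial cells expressing control shRNA against eGFP.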 Format: functional, Homo sapiens. (In general: Counterscreens check selectivity or assay interference.)
Assay [2] is described as follows: Luminescence Cell-Based Dose Retest to Confirm Inhibitors of Cancer Stem Cells. [Related pubchem assays (depositor defined):AID2717, AID2721]. Type of assay: functional. The conditions noted are these: Homo sapiens.
A further assay has as its target T1, Exodeoxyribonuclease V (Escherichia coli (strain K12), UniProt P04993+P07648+P08394).
T1 sequence (P04993 whole entry): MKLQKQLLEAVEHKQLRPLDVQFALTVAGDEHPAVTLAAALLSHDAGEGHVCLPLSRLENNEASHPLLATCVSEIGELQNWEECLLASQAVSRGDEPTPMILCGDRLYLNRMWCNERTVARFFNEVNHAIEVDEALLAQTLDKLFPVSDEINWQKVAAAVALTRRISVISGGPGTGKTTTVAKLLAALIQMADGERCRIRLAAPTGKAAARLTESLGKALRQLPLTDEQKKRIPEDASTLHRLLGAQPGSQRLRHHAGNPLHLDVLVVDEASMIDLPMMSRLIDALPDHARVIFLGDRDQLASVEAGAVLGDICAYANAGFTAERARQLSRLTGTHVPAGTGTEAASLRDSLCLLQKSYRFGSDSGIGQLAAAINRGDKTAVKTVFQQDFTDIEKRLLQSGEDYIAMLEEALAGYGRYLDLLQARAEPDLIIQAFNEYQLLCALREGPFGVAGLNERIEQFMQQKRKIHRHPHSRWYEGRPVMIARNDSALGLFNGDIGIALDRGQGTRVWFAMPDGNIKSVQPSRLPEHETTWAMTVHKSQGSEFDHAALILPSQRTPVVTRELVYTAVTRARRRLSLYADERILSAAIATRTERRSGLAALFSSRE
T1 sequence (P07648 whole entry): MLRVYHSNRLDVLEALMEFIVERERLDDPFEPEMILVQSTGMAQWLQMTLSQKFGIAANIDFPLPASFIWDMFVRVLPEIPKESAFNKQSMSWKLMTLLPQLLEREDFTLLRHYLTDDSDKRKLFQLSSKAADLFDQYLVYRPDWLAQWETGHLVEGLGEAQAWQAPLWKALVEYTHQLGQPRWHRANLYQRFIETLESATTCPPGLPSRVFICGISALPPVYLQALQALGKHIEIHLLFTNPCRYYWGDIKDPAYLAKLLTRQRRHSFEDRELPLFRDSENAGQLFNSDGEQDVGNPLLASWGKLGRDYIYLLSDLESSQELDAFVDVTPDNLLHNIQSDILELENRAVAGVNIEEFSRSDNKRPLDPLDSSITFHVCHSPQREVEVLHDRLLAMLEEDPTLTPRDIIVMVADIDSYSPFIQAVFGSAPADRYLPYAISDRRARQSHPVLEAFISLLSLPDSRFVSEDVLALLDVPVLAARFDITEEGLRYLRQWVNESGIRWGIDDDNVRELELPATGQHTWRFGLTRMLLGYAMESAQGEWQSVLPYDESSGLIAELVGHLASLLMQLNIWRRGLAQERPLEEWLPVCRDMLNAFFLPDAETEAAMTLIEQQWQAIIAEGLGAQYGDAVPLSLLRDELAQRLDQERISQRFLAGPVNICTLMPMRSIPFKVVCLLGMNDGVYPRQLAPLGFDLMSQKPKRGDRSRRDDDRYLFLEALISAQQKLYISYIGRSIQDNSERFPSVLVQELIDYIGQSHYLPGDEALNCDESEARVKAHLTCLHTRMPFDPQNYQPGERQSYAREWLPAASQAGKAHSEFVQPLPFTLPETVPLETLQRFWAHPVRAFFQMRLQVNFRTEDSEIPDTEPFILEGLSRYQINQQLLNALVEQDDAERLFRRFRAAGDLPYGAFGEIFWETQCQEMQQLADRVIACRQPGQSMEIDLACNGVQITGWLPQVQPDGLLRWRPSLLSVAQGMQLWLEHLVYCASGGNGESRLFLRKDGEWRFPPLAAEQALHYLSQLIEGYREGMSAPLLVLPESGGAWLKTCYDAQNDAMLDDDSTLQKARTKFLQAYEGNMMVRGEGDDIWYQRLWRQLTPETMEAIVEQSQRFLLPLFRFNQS
T1 sequence (P08394 whole entry): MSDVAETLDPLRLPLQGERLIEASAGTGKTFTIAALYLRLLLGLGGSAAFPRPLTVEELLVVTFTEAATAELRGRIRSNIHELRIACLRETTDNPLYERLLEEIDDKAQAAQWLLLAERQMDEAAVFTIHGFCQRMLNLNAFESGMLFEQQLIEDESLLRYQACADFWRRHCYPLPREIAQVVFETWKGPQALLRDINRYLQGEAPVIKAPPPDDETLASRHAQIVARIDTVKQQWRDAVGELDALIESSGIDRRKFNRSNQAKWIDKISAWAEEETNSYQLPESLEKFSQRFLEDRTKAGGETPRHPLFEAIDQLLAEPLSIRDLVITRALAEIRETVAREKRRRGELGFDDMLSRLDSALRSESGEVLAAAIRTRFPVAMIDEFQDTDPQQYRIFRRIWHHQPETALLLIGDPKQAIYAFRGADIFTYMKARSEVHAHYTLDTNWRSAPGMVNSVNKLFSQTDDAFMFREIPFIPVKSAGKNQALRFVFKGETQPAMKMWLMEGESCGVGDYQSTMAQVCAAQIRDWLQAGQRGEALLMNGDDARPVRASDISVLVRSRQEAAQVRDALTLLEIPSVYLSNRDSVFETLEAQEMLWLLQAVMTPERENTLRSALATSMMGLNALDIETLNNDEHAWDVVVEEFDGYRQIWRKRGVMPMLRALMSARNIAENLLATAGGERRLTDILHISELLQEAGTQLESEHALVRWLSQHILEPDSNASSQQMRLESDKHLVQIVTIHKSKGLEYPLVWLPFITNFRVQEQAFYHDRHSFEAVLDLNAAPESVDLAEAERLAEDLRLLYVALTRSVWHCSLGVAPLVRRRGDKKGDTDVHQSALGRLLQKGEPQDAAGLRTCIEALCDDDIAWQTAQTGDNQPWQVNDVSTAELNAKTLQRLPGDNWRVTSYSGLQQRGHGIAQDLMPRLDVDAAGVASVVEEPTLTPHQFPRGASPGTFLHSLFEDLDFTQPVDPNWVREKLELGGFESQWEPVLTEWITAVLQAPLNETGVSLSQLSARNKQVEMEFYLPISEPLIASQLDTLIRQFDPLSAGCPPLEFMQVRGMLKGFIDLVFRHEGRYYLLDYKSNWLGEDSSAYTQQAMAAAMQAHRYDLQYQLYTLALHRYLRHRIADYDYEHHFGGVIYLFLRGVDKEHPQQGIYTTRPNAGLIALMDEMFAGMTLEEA
Briefly: RecBCD inhibition via phage-restricted bacterial growth – absorbance, V66 E. coli, mutant T4 phage, counter-screen for AddAB inhibitor project, dose response (AID 492957). Format: functional, cell-based, Escherichia coli str. K-12 substr. MG1655.

A short description of assay [3]: Vero E6 cell cytotoxicity, dose response, cytotoxicity control for non-replicating M. tuberculosis project, secondary assay (AID 492998). Type of assay: functional, VeroE6. As to conditions: Vero C1008.
The nature of another assay: cells. Format: functional.
The nature of assay [4]: THP-1 cell cytotoxicity, dose response, cytotoxicity control for non-replicating M. tuberculosis project (AID 489025). Format: functional.
Assay [5] is described as follows: Counterscreen for AddAB inhibitors: absorbance-based bacterial cell-based high throughput dose response assay for inhibitors of bacterial viability. [Related pubchem assays (depositor defined):AID435030, AID449728, AID449731, AID488942, AID488955, AID488956]. Format: functional.
A short description of assay [6]: Trypanosoma cruzi growth suppression in host cells – NIH3T3 host cells, beta-gal luminescence, confirmation (AID 2044).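 Further: intracellular parasites grown in NIH/3T3 mouse fibroblasts as host cells; luminescent beta-galactosidase reporter signal from transgenic T. cruzi replicating inside host cells; inhibitors lower the luminescence signal.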 Type of assay: functional, cell-based.
For assay [7], the target named is Heat shock protein HSP 90-alpha (Homo sapiens, UniProt P07900). Type of assay: functional, organism-based.
Assay [8] has as its system Streptococcus sp. 'group A'. As to the kind of experiment: Streptococcus pyogenes SK(-)GAS viability under kanamycin – luminescence, BacTiterGlo, confirmation, counter-screen for streptokinase expression inhibitor project, dose response (AID 1900). Format: functional, organism-based.
Another assay addresses T2, Streptokinase A (Streptococcus pyogenes serotype M1, UniProt P10520).
T2 sequence (P10520 whole entry): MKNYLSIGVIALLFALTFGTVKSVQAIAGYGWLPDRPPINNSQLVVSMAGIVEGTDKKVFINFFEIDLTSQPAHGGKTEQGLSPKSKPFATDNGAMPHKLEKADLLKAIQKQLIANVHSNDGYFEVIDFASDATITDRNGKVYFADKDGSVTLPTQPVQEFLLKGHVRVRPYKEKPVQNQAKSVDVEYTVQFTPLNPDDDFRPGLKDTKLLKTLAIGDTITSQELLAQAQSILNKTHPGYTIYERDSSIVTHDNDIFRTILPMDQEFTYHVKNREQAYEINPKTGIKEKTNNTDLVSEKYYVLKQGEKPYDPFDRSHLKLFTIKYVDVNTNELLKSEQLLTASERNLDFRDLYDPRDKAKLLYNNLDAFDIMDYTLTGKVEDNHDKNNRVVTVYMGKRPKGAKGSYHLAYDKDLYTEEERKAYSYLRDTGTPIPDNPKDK
Briefly: viability-normalized secreted streptokinase activity reduction – plasminogen activation absorbance, OD405, dose response (AID 1914).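 Further: secreted streptokinase activity via plasminogen activation per viability signal from cell pellet.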 Format: functional, Streptococcus pyogenes M1 GAS.

Assay [9] in a line: NIH3T3 cell viability loss – ATP luminescence, mouse fibroblasts, counter-screen, dose response (AID 2010).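 Further: cells exposed to compound for about 90 hours before reading.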 Type of assay: functional, cell-based.
Another assay relates to Streptococcus. As to the kind of experiment: GAS UMAA2166 growth inhibition – luminescence, BacTiterGlo, counter-screen for streptokinase expression inhibitor project, dose response (AID 1915).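 Further: potency for reduction of bacterial viability or growth.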 Format: functional, organism-based.
Assay [10] deals with Glucose-6-phosphate 1-dehydrogenase (Homo sapiens, UniProt P11413). Briefly: inhibition of Homo sapiens G6PD, dose series – biochemical, fluorescence, selectivity assay for P. falciparum G6PD inhibitor project, dose response (AID 504792). Type of assay: functional.
Glucose-6-phosphate 1-dehydrogenase, sequence (P11413 whole entry): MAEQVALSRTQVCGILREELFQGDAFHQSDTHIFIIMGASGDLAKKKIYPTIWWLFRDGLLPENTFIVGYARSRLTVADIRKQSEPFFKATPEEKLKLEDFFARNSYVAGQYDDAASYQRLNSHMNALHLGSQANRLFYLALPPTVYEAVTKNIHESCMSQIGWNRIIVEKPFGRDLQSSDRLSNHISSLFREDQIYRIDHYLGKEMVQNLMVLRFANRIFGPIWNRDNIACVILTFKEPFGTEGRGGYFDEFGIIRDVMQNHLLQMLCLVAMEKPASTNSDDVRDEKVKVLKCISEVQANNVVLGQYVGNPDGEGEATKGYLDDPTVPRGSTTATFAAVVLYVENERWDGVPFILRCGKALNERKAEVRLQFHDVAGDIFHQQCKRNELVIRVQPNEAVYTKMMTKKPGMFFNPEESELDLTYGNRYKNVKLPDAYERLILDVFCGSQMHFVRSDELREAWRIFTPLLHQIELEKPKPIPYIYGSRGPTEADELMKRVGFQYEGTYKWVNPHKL
Assay [11] has as its target FAD-linked sulfhydryl oxidase ALR (Homo sapiens, UniProt P55789). As to the kind of experiment: ALR-catalysed DTT oxidation blockers – biochemical, H2O2 detection, luminescence, cherry-pick, dose response (AID 493248).
In assay [12] the target is T3, Heat shock factor protein 1 (Mus musculus, UniProt P38532).
T3 sequence (P38532 whole entry): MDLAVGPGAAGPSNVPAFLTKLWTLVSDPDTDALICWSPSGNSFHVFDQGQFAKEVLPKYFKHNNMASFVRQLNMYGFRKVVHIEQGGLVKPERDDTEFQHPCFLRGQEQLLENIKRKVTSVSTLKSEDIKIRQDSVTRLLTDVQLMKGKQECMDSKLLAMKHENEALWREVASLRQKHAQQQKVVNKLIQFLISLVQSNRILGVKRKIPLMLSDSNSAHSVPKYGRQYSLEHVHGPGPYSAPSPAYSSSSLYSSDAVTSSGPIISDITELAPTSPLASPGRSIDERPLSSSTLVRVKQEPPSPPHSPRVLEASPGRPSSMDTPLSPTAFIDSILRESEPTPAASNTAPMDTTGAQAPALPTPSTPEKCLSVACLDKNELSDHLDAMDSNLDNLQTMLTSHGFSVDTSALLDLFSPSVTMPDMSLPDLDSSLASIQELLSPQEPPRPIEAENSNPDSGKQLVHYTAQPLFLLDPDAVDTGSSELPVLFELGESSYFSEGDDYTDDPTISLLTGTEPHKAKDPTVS
As to the kind of experiment: decrease of HSF1-responsive luciferase luminescence – cell-based, NIH3T3, dose retest, confirmation (AID 2382).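 Further: NIH3T3 fibroblasts with HSF1-driven luciferase reporter stressed by proteasome inhibitor MG132; luminescence from HSF1-driven luciferase expression after 8 hours of MG132 stress.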 Format: functional.

Results on seven molecules are retold here after ChEMBL document CHEMBL1201862, “PubChem BioAssay data set” (2004).

Usually AC50 stands for the midpoint of the concentration-response curve, whichever way the signal moves. By IC50 is commonly meant the point on the concentration scale where inhibition reaches its midpoint. What is called CC50 is the concentration giving 50% cytotoxicity. In general, EC50 refers to the concentration at which the effect is half-maximal.

Calls of active or inactive are those of the source.

FAD-linked sulfhydryl oxidase ALR, sequence (P55789 whole entry): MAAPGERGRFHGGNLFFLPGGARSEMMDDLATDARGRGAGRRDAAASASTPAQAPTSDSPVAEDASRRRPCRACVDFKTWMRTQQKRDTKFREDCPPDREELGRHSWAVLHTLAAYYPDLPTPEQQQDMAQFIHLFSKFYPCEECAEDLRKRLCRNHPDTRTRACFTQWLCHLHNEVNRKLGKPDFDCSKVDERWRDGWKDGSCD

As for `CCN(CC)CCNCc1ccc(-c2ccc(Cl)cc2)o1`, the AC50 is 20.9 µM (active) in assay [1] and 8.94 µM (active) in [2].
With `NC(=NOC(=O)c1ccccc1Cl)c1ncc([N+](=O)[O-])s1`, the IC50 at Exodeoxyribonuclease V was > 119 µM (inactive); in “cells”, 3.81 µM (active); in [5], > 119 µM (inactive). For the same molecule, the half-maximal cytotoxic concentration (CC50) in [3] was > 20 µM (active); in assay [4] it was 34.4 µM (active).
On to `CCCC(=O)NC(c1ccco1)c1cc(Cl)c2cccnc2c1O` (configuration not stated), for which the IC50 (at Exodeoxyribonuclease V; in assay [5]) was > 119 µM (inactive) each time. In addition, the EC50 is 3.44 µM (active) in assay [6]; 1.18 µM (active) in assay [8]; > 150 µM (not active) on Streptokinase A; 5.04 µM (active) in [9]; 32 µM (active) in the assay on Streptococcus. Besides, the AC50 in assay [7] is 4.25 µM (active).
For `COc1ccc(CCNC(=O)c2cc(-c3ccc(Cl)c(Cl)c3)oc2C)cc1`, the figures for the EC50 (in [8]; at Streptokinase A; with Streptococcus) were 7.72 µM (active), 6.21 µM (inconclusive) and 22.4 µM (active), respectively. Besides, the figures for the AC50 in assay [1] and in assay [2] were 48.4 µM (active) and 3.04 µM (active), respectively.
Take `Oc1ccc(C23CC4CC(CC(C4)C2)C3)cc1O`: the IC50 in assay [10] is > 80 µM (inactive). For the same molecule, the AC50 in assay [11] was 4.17 µM (active).
`COc1ccc2nc(NC(=O)CCNC(=O)c3ccco3)sc2c1`: the IC50 (on Exodeoxyribonuclease V; in assay [5]) was > 119 µM (inactive) each time.
Take `CC(C)(C)c1ccc2c(c1)OC(C(=O)N/N=C\c1ccc[nH]1)CO2` (configuration not stated): in [12], the EC50 was 436 nM (active). Moreover, the AC50 was 23 µM (active) in [1] and 1.94 µM (active) in assay [2].
